Measured values as given in ChEMBL document CHEMBL6182939, “Searching for Synthetic Opioid Rescue Agents. 2: Identification of an Ultra-Potent Synthetic Opioid Rescue Agent” (J Med Chem, 2025).
pIC50: −log10 of the molar value.

Legend:
[1] = molecular target: T1, Delta-type opioid receptor (Homo sapiens, UniProt P41143); experiment: Antagonist activity against human DOR expressed in CHO-K1 cells assessed as maximal inhibition of forskolin-induced cAMP accumulation pretreated for 15 mins followed by forskolin addition measured after 30 mins by HitHunter cAMP assay normalized to naltrexone; format: functional, cell-based; details: filed as antagonist, time 45.0 min
[2] = molecular target: Kappa-type opioid receptor (Homo sapiens, UniProt P41145); format: functional, cell-based, CHO-K1
Mu-type opioid receptor = Mu-type opioid receptor (Homo sapiens, UniProt P35372); format: functional, cell-based, CHO-K1
[3] = molecular target: T1, Delta-type opioid receptor
[4] = molecular target: T2, Sodium-dependent dopamine transporter (Homo sapiens, UniProt Q01959); experiment: Inhibition of Dopamine transporter (unknown origin) assessed as maximal response
[5] = molecular target: Alpha-1A adrenergic receptor (Homo sapiens) (UniProt P35348); experiment: Antagonist activity at alpha1A adrenoreceptor (unknown origin) assessed as maximal response; details: filed as antagonist
[6] = molecular target: T3, Rho-associated protein kinase 1 (Homo sapiens, UniProt Q13464); experiment: Inhibition of ROCK1 (unknown origin) assessed as maximal response
[7] = molecular target: D(2) dopamine receptor (Homo sapiens) (UniProt P14416); experiment: Antagonist activity at D2S receptor (unknown origin) assessed as maximal response; details: filed as antagonist
[8] = molecular target: T4, Sodium-dependent noradrenaline transporter (Homo sapiens, UniProt P23975); experiment: Inhibition of Norepinephrine transporter (unknown origin) assessed as maximal response
[9] = molecular target: Glutamate [NMDA] receptor (Homo sapiens) (UniProt Q05586+Q12879+Q13224+O15399+O60391+Q14957+Q8TCU5); experiment: Inhibition of NMDA receptor (unknown origin) assessed as maximal response; format: protein-complex assay
Cytochrome P450 1A2 = molecular target: T5, Cytochrome P450 1A2 (Homo sapiens, UniProt P05177); experiment: (§1) Inhibition of CYP1A2 in human liver microsomes at 10 uM relative to control; format: ADME, Microsome; details: microsomes, 10 µM
T5 sequence (P05177 whole entry): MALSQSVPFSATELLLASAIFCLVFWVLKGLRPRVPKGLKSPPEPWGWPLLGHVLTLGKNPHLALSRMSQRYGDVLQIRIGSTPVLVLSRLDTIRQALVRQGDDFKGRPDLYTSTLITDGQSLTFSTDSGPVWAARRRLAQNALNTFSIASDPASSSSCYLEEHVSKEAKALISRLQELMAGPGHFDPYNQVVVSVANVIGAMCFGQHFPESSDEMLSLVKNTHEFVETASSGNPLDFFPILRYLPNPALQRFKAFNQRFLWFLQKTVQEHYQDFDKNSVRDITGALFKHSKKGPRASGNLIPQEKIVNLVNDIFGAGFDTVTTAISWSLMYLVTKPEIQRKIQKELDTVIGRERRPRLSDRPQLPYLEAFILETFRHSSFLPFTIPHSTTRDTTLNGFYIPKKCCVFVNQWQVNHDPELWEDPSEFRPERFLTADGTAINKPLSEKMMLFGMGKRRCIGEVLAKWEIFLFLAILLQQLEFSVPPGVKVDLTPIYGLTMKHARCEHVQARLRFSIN

Cytochrome P450 2C9 = Cytochrome P450 2C9 (Homo sapiens, UniProt P11712); experiment: (§2) Inhibition of CYP2C9 in human liver microsomes at 10 uM relative to control; format: ADME, Microsome; details: microsomes, 10 µM
Cytochrome P450 3A4 = Cytochrome P450 3A4 (Homo sapiens, UniProt P08684); experiment: (§3) Inhibition of CYP3A4 in human liver microsomes at 10 uM relative to control; format: ADME, Microsome; details: microsomes, 10 µM
[10] = Metabolic stability in human liver microsomes assessed as half life; format: ADME, Microsome; details: for t1/2: microsomes
Cytochrome P450 2D6 = Cytochrome P450 2D6 (Homo sapiens, UniProt P10635); experiment: (§4) Inhibition of CYP2D6 in human liver microsomes at 10 uM relative to control; format: ADME, Microsome; details: microsomes, 10 µM
Cytochrome P450 2C19 = Cytochrome P450 2C19 (Homo sapiens, UniProt P33261); experiment: (§5) Inhibition of CYP2C19 in human liver microsomes at 10 uM relative to control; format: ADME, Microsome; details: microsomes, 10 µM
[11] = Metabolic stability in mouse liver microsomes assessed as half life; format: ADME, Microsome; details: for t1/2: microsomes
[12] = Half life in Sprague-Dawley rat plasma at 2 mg/kg, ip by LC-MS/MS analysis; format: ADME, organism-based
[13] = Cmax in Sprague-Dawley rat plasma at 2 mg/kg, ip by LC-MS/MS analysis; format: ADME, organism-based
[14] = Cmax in Sprague-Dawley rat plasma at 1 mg/kg, ip by LC-MS/MS analysis; format: ADME, organism-based
[15] = Half life in Sprague-Dawley rat plasma at 1 mg/kg, ip by LC-MS/MS analysis; format: ADME, organism-based
[16] = Drug uptake in Sprague-Dawley rat brain at 1 mg/kg, ip by LC-MS/MS analysis; format: ADME, organism-based; details: in vivo
CYP1A2 = CYP1A2 (Homo sapiens, UniProt P05177); experiment: as §1; format: ADME, Microsome; details: liver microsomes
CYP2C9 = CYP2C9 (Homo sapiens, UniProt P11712); experiment: as §2; format: ADME, Microsome; details: liver microsomes
CYP3A4 = CYP3A4 (Homo sapiens, UniProt P08684); experiment: as §3; format: ADME, Microsome; details: liver microsomes
CYP2D6 = CYP2D6 (Homo sapiens, UniProt P10635); experiment: as §4; format: ADME, Microsome; details: liver microsomes
CYP2C19 = CYP2C19 (Homo sapiens, UniProt P33261); experiment: as §5; format: ADME, Microsome; details: liver microsomes
[17] = molecular target: T4, Sodium-dependent noradrenaline transporter; experiment: Inhibition of Norepinephrine transporter (unknown origin)
[18] = Metabolic stability in mouse liver microsomes assessed as intrinsic clearance; format: ADME, Microsome
[19] = molecular target: Glutamate [NMDA] receptor; experiment: Inhibition of NMDA receptor (unknown origin); format: protein-complex assay, Homo sapiens
hERG (KCNH2) = hERG (KCNH2) (Homo sapiens, UniProt Q12809); experiment: Inhibition of hERG channel assessed as maximal response; format: toxicity; details: read-out: Imax
[20] = molecular target: T3, Rho-associated protein kinase 1; experiment: Inhibition of ROCK1 (unknown origin)
[21] = molecular target: T2, Sodium-dependent dopamine transporter; experiment: Inhibition of Dopamine transporter (unknown origin)
[22] = molecular target: Voltage-gated inwardly rectifying potassium channel KCNH2 (Homo sapiens, UniProt Q12809); experiment: Inhibition of hERG channel; format: toxicity

Cytochrome P450 2D6, sequence (P10635 whole entry): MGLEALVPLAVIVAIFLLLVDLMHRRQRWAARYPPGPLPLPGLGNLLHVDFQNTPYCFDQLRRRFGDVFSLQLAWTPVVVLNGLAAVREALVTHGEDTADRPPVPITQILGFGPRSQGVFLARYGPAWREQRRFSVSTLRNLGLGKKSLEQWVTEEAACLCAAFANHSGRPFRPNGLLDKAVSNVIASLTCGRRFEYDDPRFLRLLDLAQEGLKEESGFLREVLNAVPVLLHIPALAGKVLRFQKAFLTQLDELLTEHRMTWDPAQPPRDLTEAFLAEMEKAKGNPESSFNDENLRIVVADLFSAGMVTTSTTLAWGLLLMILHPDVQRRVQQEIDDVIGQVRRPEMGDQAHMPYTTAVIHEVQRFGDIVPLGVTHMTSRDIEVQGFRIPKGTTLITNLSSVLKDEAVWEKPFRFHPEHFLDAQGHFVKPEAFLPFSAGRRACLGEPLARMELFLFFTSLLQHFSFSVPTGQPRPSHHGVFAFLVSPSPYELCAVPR
Mu-type opioid receptor, sequence (P35372 whole entry): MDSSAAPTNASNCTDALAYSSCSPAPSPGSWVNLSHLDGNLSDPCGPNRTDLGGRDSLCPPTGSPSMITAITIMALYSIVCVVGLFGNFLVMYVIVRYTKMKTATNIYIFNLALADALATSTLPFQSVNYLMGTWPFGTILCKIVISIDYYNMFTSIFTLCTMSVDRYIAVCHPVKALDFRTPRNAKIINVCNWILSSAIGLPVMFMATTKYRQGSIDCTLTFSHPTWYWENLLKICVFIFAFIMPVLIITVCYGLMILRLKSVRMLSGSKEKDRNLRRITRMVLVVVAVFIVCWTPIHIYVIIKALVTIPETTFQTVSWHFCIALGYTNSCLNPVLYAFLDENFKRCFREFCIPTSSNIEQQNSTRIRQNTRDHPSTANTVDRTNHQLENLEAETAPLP
Cytochrome P450 2C19, sequence (P33261 whole entry): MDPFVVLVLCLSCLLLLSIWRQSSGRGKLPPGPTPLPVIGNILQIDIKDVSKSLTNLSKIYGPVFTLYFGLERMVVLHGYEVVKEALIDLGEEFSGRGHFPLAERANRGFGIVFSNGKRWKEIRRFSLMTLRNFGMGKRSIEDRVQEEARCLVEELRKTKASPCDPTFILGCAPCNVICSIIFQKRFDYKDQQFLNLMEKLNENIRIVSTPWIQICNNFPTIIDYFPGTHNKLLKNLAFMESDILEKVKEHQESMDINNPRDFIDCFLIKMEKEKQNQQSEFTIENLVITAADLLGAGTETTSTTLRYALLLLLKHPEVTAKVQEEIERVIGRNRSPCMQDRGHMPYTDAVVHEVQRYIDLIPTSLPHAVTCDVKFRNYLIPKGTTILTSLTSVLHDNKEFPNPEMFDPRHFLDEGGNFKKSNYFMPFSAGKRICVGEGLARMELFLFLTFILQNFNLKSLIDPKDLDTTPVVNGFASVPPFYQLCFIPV
Cytochrome P450 2C9, sequence (P11712 whole entry): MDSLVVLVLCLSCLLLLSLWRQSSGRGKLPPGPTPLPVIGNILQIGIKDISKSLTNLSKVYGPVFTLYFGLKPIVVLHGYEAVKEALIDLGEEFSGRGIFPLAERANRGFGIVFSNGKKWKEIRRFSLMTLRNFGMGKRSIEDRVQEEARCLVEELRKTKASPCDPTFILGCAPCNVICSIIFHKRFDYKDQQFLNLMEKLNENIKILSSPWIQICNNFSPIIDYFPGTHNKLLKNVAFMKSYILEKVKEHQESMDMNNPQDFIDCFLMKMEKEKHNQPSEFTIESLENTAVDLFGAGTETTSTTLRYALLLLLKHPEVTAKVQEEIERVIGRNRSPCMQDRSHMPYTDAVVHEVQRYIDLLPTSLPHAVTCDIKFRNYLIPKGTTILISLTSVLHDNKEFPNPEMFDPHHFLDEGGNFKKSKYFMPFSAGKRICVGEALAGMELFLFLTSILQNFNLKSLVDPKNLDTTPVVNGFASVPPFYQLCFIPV
Cytochrome P450 3A4, sequence (P08684 whole entry): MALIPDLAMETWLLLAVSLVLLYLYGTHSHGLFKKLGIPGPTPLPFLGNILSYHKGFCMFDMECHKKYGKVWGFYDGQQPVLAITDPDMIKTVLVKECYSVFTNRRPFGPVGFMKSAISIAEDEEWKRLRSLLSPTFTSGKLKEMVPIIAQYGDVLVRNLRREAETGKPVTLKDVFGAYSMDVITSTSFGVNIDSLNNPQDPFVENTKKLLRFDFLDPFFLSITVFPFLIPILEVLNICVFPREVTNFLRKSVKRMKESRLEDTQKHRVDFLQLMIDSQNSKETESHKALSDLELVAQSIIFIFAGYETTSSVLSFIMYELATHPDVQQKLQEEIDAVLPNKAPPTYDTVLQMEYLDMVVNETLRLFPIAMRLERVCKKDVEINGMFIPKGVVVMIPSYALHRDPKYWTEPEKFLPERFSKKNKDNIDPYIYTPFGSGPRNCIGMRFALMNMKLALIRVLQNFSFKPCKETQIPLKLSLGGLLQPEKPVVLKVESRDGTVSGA
T1 sequence (P41143 whole entry): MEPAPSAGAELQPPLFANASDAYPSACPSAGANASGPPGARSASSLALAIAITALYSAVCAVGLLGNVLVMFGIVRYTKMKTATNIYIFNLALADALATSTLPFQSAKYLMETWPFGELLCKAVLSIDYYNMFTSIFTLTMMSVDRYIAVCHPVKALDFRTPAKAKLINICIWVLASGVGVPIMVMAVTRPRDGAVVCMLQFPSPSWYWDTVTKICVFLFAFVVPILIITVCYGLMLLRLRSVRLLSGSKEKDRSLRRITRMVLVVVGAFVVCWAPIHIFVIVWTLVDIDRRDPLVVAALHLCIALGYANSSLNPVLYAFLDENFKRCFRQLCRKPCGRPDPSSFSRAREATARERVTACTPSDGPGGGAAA
T4 sequence (P23975 whole entry): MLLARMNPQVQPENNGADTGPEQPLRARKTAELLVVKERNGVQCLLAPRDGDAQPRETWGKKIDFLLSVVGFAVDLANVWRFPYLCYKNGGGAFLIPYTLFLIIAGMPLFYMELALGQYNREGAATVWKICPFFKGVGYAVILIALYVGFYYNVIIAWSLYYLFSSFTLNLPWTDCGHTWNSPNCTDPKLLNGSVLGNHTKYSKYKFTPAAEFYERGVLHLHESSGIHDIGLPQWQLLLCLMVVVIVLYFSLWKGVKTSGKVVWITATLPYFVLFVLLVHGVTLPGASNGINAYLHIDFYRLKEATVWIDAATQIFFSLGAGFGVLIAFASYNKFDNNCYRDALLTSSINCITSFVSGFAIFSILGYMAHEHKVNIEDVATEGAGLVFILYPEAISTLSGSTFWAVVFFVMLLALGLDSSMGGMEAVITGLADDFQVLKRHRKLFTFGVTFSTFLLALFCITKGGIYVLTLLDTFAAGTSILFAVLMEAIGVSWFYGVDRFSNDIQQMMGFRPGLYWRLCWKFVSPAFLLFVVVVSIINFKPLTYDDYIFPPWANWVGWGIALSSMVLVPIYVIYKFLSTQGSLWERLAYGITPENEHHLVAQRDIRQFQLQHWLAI
T2 sequence (Q01959 whole entry): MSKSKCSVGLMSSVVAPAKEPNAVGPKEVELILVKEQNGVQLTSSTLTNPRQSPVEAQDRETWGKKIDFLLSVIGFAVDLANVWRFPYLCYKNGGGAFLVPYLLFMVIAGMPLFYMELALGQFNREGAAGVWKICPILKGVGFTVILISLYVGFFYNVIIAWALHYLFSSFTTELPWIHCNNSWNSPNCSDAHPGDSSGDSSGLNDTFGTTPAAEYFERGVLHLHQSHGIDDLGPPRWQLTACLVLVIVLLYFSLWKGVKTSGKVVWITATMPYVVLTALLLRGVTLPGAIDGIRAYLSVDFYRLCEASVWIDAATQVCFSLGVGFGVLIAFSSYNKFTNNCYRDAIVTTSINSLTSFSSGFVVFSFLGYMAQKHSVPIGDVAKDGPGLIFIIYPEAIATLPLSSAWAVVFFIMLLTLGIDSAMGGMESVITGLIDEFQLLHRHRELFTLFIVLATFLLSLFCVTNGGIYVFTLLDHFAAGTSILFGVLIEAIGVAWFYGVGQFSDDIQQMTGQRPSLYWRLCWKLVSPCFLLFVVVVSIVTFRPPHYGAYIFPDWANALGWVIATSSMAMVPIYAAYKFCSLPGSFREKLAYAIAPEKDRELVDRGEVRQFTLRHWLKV
Kappa-type opioid receptor, sequence (P41145 whole entry): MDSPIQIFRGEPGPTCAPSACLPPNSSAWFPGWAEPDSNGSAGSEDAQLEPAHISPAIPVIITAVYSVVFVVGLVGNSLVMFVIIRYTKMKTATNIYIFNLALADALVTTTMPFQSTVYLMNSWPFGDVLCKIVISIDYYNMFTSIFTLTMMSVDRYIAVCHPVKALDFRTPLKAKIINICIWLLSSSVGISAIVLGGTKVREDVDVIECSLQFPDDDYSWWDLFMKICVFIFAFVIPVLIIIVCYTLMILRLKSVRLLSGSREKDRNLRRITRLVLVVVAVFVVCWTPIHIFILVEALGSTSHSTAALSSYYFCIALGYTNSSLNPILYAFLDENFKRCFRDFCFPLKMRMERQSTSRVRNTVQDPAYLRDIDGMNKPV
CYP2D6, sequence (P10635 whole entry): as the sequence (P10635 whole entry) above
Alpha-1A adrenergic receptor (Homo sapiens), sequence (P35348 whole entry): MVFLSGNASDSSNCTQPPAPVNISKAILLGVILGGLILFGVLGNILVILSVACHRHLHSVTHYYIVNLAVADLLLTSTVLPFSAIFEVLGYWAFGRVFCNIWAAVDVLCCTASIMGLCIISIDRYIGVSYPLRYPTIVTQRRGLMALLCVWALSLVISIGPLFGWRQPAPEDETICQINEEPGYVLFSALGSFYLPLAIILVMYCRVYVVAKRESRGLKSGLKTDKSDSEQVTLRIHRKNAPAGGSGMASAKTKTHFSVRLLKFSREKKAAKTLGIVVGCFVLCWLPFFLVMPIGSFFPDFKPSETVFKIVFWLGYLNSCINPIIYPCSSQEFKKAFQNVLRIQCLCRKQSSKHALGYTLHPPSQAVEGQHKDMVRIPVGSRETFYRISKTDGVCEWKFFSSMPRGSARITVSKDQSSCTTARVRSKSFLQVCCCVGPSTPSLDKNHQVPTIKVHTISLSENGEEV
CYP3A4, sequence (P08684 whole entry): as the sequence (P08684 whole entry) above

Structure (SMILES)	Imax [1]	pIC50 (Mu-type opioid receptor)	inhibition (INH) (Cytochrome P450 1A2)	inhibition (INH) (Cytochrome P450 2C9)	inhibition (INH) (Cytochrome P450 3A4)	t1/2 [10]	inhibition (INH) (Cytochrome P450 2D6)	inhibition (INH) (Cytochrome P450 2C19)	t1/2 [11]	other results
COc1cc(CNC2Cc3ccccc3C2)ccc1Oc1ccc(C(N)=O)cn1	168%	9.40								pIC50 [2]: 8.00; pIC50 [3]: 9.20
C=CC[N+]1(C)CC[C@]23c4c5ccc(O)c4O[C@H]2C(=O)CC[C@@]3(O)[C@H]1C5 (stereo partly drawn) [NALOXONE METHIODIDE]		6.20								
NC(=O)c1ccc(Oc2ccc(CNCCc3ccccc3)cc2)nc1 [listing 1 of 2 here]	230%									Imax [4]: 71.5%; Imax [5]: 99.9%; Imax [6]: 76.1%; Emax [7]: 99.4%; Imax [8]: 83.9%; Imax [9]: 64.3%
C=C1CC[C@@]2(O)[C@H]3Cc4ccc(O)c5c4[C@@]2(CCN3CC2CC2)[C@H]1O5			0%	0%	0.2%	> 145 min	68.2%	0%	87.1 min	
C=CCN1CC[C@]23c4c5ccc(O)c4O[C@H]2C(=O)CC[C@@]3(O)[C@H]1C5 [NALOXONE]										half-life [12]: 20.9 min
Cl.NC(=O)c1ccc(Oc2ccc(CNCCc3ccccc3)cc2)nc1										Cmax [13]: 182 ng/mL; Cmax [14]: 92.8 ng/mL; half-life [15]: 91.2 min; half-life [12]: 20.9 min; Drug uptake [16]: Not_active
NC(=O)c1ccc(Oc2ccc(CNCCc3ccccc3)cc2)cc1			0%	9.5%	0%	> 145 min	66.4%	27.7%	7.6 min	pIC50 [2]: 8.00
C=CCN1CC[C@]23c4c5ccc(O)c4O[C@H]2[C@@H](OCCOCCOCCOCCOCCOCCOCCOC)CC[C@@]3(O)[C@H]1C5	103%									
COc1cc(CNCCc2ccccc2)ccc1Oc1ccc(C(N)=O)cn1	157%		1%	13.1%	7.8%	> 145 min	61.2%	1.6%	41.9 min	
C[C@H]1CN(CC[C@H](O)C2CCCCC2)CC[C@@]1(C)c1cccc(O)c1	155%									inhibition at 10 µM (CYP1A2): 14.5%; inhibition at 10 µM (CYP2C9): 11.9%; inhibition at 10 µM (CYP3A4): 0%; half-life ([10]; liver microsomes): 6.4 min; inhibition at 10 µM (CYP2D6): 86.4%; inhibition at 10 µM (CYP2C19): 35.1%; half-life ([11]; liver microsomes): 1.9 min; pIC50 [3]: 8.40
NC(=O)c1ccc(Oc2ccc(CNCCc3ccccc3)cc2)nc1 [listing 2 of 2 here]			0.6%		6.8%	> 145 min	72.7%	11.6%	62.9 min	pIC50 [17]: 5.82; CLH [18]: 22.05 µL/min/mg; pIC50 [19]: 5.30; Emax (hERG (KCNH2)): 63.7%; pIC50 [20]: 5.43; pIC50 [21]: 5.52; pIC50 [22]: 5.26
CC(C)(NC(=O)C1=C(O)[C@@H]2Oc3c(O)ccc4c3[C@@]23CCN(CC2CC2)[C@H](C4)[C@]3(O)C1)c1nc(-c2ccccc2)no1 [NALDEMEDINE]		8.50								
NC(=O)c1ccc(Oc2ccc(CNCCc3ccccc3)cc2Cl)nc1	158%	8.90	12.1%	4.8%	0%	110.2 min	45.4%	9.1%	13.6 min	
COc1cc(CNCCC(C)C)ccc1Oc1ccc(C(N)=O)cn1	187%	8.70	0%	9.7%	3.8%	> 145 min	35.2%	21.7%	> 145 min	pIC50 [3]: 8.30
COc1cc(CNCCC2CCCCC2)ccc1Oc1ccc(C(N)=O)cn1		8.50								
NC(=O)c1ccc(Oc2ccc(CNCCc3ccccc3)cc2OCc2ccccc2)nc1	152%	8.50								pIC50 [3]: 8.40
